ED50 and IC50 data for twelve molecules are collected here from ChEMBL document CHEMBL1128081, “Synthesis of dibenzo[a,d]cycloheptanes as cytokine biosynthesis inhibitors” (Bioorg Med Chem Lett, 1995).

Type in all cases: functional
Experiment [1] relates to Mus musculus. Nature of the experiment: Ability to inhibit the accumulation of cytokine interleukin-6 (IL-6) in the serum of […] parvum-primed mice by po administration.
Experiment [2] has as its system Mus musculus. The experiment is described as follows: Ability to inhibit the accumulation of gamma-interferon (gamma-IFN) in the serum of […] parvum-primed mice by po administration.
Experiment [3] concerns Mus musculus. Nature of the experiment: Ability to inhibit the accumulation of inflammatory cytokine interleukin-1 alpha (IL-1 alpha) in the serum of […] parvum-primed mice by po administration.
Experiment [4] relates to Mus musculus. The experiment is described as follows: Ability to inhibit the accumulation of tumor necrosis factor-alpha (TNF-alpha) in the serum of […] parvum-primed mice by po administration.
Experiment [5] is filed under the species Mus musculus. The experiment is described as follows: In vitro inhibitory activity was measured for the release of tumor necrosis factor-alpha (TNF-alpha) from a murine monocytic cell line.

Bounds are passed on as bounds.

`CN(C)CCC1(O)c2ccccc2CCc2ccccc21`: the median effective dose (ED50) in experiment [1], in experiment [2], in experiment [3] and in experiment [4] was more than 25 mg/kg in each case.
Consider `CCCC1(CCN(C)C)c2ccccc2CCc2ccccc21`, for which the ED50 (commonly the dose that gives a 50% effect, or the effect in half of the subjects) in experiment [1] was 23.3 mg/kg; in experiment [2], 10.8 mg/kg; in experiment [3] it was 6.25 mg/kg.
For the molecule `CCOC1(CCN2CCCC2)c2ccccc2CCc2ccccc21`, the results for the ED50 in experiment [2], in experiment [3] and in experiment [4] were 11.3 mg/kg, 11.1 mg/kg and 16.1 mg/kg, respectively.
Consider `CCOCC1(CCN(C)C)c2ccccc2CCc2ccccc21`, for which the ED50 is more than 25 mg/kg in experiment [1], 13.5 mg/kg in experiment [2], 18.1 mg/kg in experiment [3] and 19.6 mg/kg in experiment [4].
The matching figures for `CCCCCCC1(CCN(C)C)c2ccccc2CCc2ccccc21`: more than 25 mg/kg, more than 25 mg/kg, more than 25 mg/kg and more than 25 mg/kg.
With `CCOC1(CCN(C)C)c2ccccc2C=Cc2ccccc21`, the ED50 was more than 25 mg/kg in experiment [1], 13.2 mg/kg in experiment [2], more than 6.25 mg/kg in experiment [3] and more than 25 mg/kg in experiment [4].
On to `CCCC1(CN(C)C)c2ccccc2CCc2ccccc21`, for which the ED50 was 25 mg/kg in experiment [1], 3.9 mg/kg in experiment [2], more than 25 mg/kg in experiment [3] and more than 25 mg/kg in experiment [4].
As to `CCCC1(CCCN(C)C)c2ccccc2CCc2ccccc21`, the ED50 in experiment [1] is 15.8 mg/kg; in experiment [2], 5.9 mg/kg; in experiment [3] it was 8.7 mg/kg; in experiment [4] it was more than 25 mg/kg.
`CCOC1(CCN(C)C)c2ccccc2CCc2ccccc21`: the ED50 in experiment [1] was 8 mg/kg; in experiment [2], 1.3 mg/kg; in experiment [3] it was 2.4 mg/kg; in experiment [4], 17.6 mg/kg. Further, the half-inhibitory concentration (IC50) – broadly, the midpoint of a concentration-inhibition curve – in experiment [5] was found to be 1.7 µM.
On to `CCOC1(CCN(C)C)c2ccccc2CCc2cccnc21` (configuration not stated), for which the ED50 in experiment [1], in experiment [2], in experiment [3] and in experiment [4] was more than 25 mg/kg throughout.
With `CCOC1(CCN(C)C(C)=O)c2ccccc2CCc2ccccc21`, the ED50 in experiment [1], in experiment [2], in experiment [3] and in experiment [4] was more than 25 mg/kg throughout.
Consider `CCOCC1(CCNC)c2ccccc2CCc2ccccc21`, for which the ED50 in experiment [1], in experiment [2], in experiment [3] and in experiment [4] was more than 25 mg/kg throughout.
